From patent publication US9944700B2, “Notch2 binding molecules for treating respiratory diseases” (NOVARTIS AG, priority 2013, dated 2018)

Legend:
[1] = tested on: Human airway basal cells grown in 3D; assay: 3D bronchosphere cultures treated with Notch receptor-specific blocking antibodies, qPCR of cell type markers; format: cell-based
Experimental: (§1) Human bronchial epithelial (HBE) cells and culture media were obtained from Lonza. Air-liquid interface cultures using passage 2 (P2) cells were performed as previously described (Danahay, H. et al., American journal of physiology. Lung cellular and molecular physiology 282, L226-236 (2002)). For three-dimensional culturing of HBE cells, P1 cells were trypsinized and resuspended (30,000 cells/ml) in HBE differentiation media containing 5% growth factor-reduced Matrigel (BD Biosciences). 20 μl of suspension was plated in each well of a 384-well plate (Greiner) pre-coated with 10 μl of a 25% solution of Matrigel (BD Biosciences) in HBE differentiation media. Wells were fed or treated at day 2 and day 8 of culture by adding 30 μl of differentiation media containing the appropriate treatment. Three-dimensional cultures were analyzed at the time points indicated.
RNA was isolated from 3D bronchosphere cultures with Trizol (Invitrogen), using manufacturer's specifications. To isolate RNA from mouse tissue, approximately 20 mg of tissue was placed in a 1.5 ml eppendorf tube with 1 ml of Buffer RLT Plus (Qiagen). A 5 mm stainless steel bead (Qiagen) was added to the tube, and the tissue was sheared using a Tissue Lyser II (Qiagen). RNA from the sheared tissue was purified using the RNeasy Plus Mini Kit (Qiagen), using manufacturer's specifications. TaqMan Reverse Trascription Reagents (Invitrogen) were used to generate cDNA from 1 μg of total RNA. Quantitative PCR was performed on a ViiA7 Real-Time PCR System (Applied Biosystems), using 40 ng of cDNA per reaction with the following Taqman probes (Applied Biosystems): MUC5AC, Hs01365601_m1; MUC5B, Hs00861588_m1; FOXA3, Hs00270130_m1; FOXJ1, Hs00230964_m1; DNAI2, Hs01001544_m1; TP63, Hs00978340_m1; ITGA6, Hs01041011_m1; GAPDH, Hs99999905_m1; Muc5ac, Mm012718_m1; Foxj1, Mm012367279_m1; Trp63, Mm00495788_m1; Gapdh, Mm99999915_g1. […]

[2] = tested on: Human bronchial epithelial (HBE) cells; assay: IL-13-driven goblet cell metaplasia in ALI cultures; format: cell-based; settings: ALI cultures (results not shown)
Experimental: as §1, with “Wells were fed or treated at day 2 and day 8 of culture by adding 30 μl of differentiation media containing the appropriate treatment.” left out
Immunofluorescence of HBEC bronchospheres was performed as described previously for MCF10A cysts (Debnath, J. et al., Methods 30, 256-268 (2003) with the following modifications. After incubation with fluorescence-conjugated secondary antibodies, DNA was stained with a 1:1 mix of PBS and ProLong gold antifade containing DAPI. Confocal microscopy was performed at room temperature on a microscope (Zeiss LSM510 Meta) using an EC Plan-Neofluar 10×/0.30 dry objective (Zeiss), an EC Plan-Neofluor 20×/0.5 dry objective (Zeiss), a C-Apochromat 40×/1.2 W corr (Zeiss), or a C-Apochromat 63×/1.2 W Corr objective (Zeiss). […]

[3] = tested on: Human airway basal cells grown in 3D; assay: IL-13-driven goblet cell metaplasia in 3D bronchospheres, qPCR of cell type markers; format: cell-based
Experimental: as §1
RNA was isolated from 3D bronchosphere cultures with Trizol (Invitrogen), using manufacturer's specifications. […] Quantitative PCR was performed on a ViiA7 Real-Time PCR System (Applied Biosystems), using 40 ng of cDNA per reaction with the following Taqman probes (Applied Biosystems): MUC5AC, Hs01365601_m1; MUC5B, Hs00861588_m1; FOXA3, Hs00270130_m1; FOXJ1, Hs00230964_m1; DNAI2, Hs01001544_m1; TP63, Hs00978340_m1; ITGA6, Hs01041011_m1; GAPDH, Hs99999905_m1; Muc5ac, Mm012718_m1; Foxj1, Mm012367279_m1; Trp63, Mm00495788_m1; Gapdh, Mm99999915_g1.
In order to understand if neutralizing Notch2 could prevent goblet cell metaplasia, a hallmark of several airway diseases including asthma, cystic fibrosis, and COPD, anti-Notch2 antibodies were tested for their effect on IL-13-driven goblet cell metaplasia in 3D bronchospheres. Human airway basal cells were grown in 3D in the presence of vehicle control or IgG, with or without 1 ng/ml IL-13, or increasing concentrations of α-N2 D3 or 59R5 antibodies together with 1 ng/ml of IL-13, and analyzed by qPCR for the expression levels of the indicated goblet cell markers (FIG. 5a), ciliated cell markers (FIG. 5b), and basal cell markers (FIG. 5c).

[4] = tested on: IL-13 driven goblet cell metaplasia; assay: IL-13 mouse model, co-administration of anti-Notch2 antibodies; format: in vivo
Experimental: RNA was isolated from 3D bronchosphere cultures with Trizol (Invitrogen), using manufacturer's specifications. To isolate RNA from mouse tissue, approximately 20 mg of tissue was placed in a 1.5 ml eppendorf tube with 1 ml of Buffer RLT Plus (Qiagen). A 5 mm stainless steel bead (Qiagen) was added to the tube, and the tissue was sheared using a Tissue Lyser II (Qiagen). RNA from the sheared tissue was purified using the RNeasy Plus Mini Kit (Qiagen), using manufacturer's specifications. TaqMan Reverse Trascription Reagents (Invitrogen) were used to generate cDNA from 1 μg of total RNA. Quantitative PCR was performed on a ViiA7 Real-Time PCR System (Applied Biosystems), using 40 ng of cDNA per reaction with the following Taqman probes (Applied Biosystems): MUC5AC, Hs01365601_m1; MUC5B, Hs00861588_m1; FOXA3, Hs00270130_m1; FOXJ1, Hs00230964_m1; DNAI2, Hs01001544_m1; TP63, Hs00978340_m1; ITGA6, Hs01041011_m1; GAPDH, Hs99999905_m1; Muc5ac, Mm012718_m1; Foxj1, Mm012367279_m1; Trp63, Mm00495788_m1; Gapdh, Mm99999915_g1.
Female Balb/c mice (20-25 g) were obtained from Charles River (Morgate, UK). Mice were housed under specific pathogen free conditions and were provided with food and water ad libitum. Experiments were performed in accordance with the UK Animals Scientific Procedures Act 1986.
Mice received 0.5 μg of recombinant mouse IL-13 (Ebiosciences, UK) or phosphate-buffered saline (PBS) intranasally on 3 consecutive (days 1, 2, 3). Mice received either 20 mg/kg neutralizing antibody against Notch2 (α-N2 D3 or α-N2 59R5) or control IgG, or PBS intraperitoneally 2 hours before intranasal challenge with either IL-13 or PBS, on days 1 and 3 only. Mice were euthanized 24 hours after the final IL-13 administration. The left lungs were excised, inflated with 10% neutral buffered formalin (NBF) and preserved in NBF. Lungs were embedded in paraffin wax and lung sections were obtained for each animal. Sections were stained with Periodic Acid-Schiff (PAS) stain for mucus.
PAS positive staining was quantified in lung sections using Definiens Image Analysis software. Two distinct lung sections were analyzed per mouse and the total area of PAS positive staining within the sections was determined. The PAS positive staining was normalized to the area of tissue analyzed and represented as ‘Relative Area PAS Positive Mucus (%)’.
Data are expressed as mean±SEM. Statistical significance was determined using a parametric one way ANOVA and Dunnetts post-test. GraphPad Prism (version 5.04) was used to generate graphs and perform statistical analysis. ***p<0.001 denotes statistically significant difference from relevant isotype control group.

59R5: anti-Notch2 antagonist IgG1 antibody, heavy chain SEQ ID NO: 5, light chain SEQ ID NO: 6
effect on basal cell markers p63 and ITGA6 ([1]; FIG. 4c): Neither antibody showed any significant effect | goblet cell formation: expression of goblet cell markers MUC5AC, MUC5B and FOXA3 ([1]; compared with IgG control or anti-Notch1 / anti-Notch3 antibodies, FIG. 4a): decreased | ciliated cell formation: expression of ciliated cells markers FOXJ1 and DNAI2 ([1]; compared with IgG control or anti-Notch1 / anti-Notch3 antibodies, FIG. 4b): increasing | IL-13-driven goblet cell metaplasia [2]: completely inhibited | IL-13-driven goblet cell metaplasia (expression of goblet cell markers MUC5AC, MUC5B and FOX3A) ([3]; 1 ng/ml IL-13, increasing antibody concentrations, qPCR, FIG. 5a): completely inhibited | ciliated cells function (expression of ciliated cell markers FOXJ1 and DNAI2) ([3]; 1 ng/ml IL-13, qPCR, FIG. 5b): partially restored | effect on basal cells markers p63 and ITGA6 ([3]; 1 ng/ml IL-13, qPCR, FIG. 5c): No effect | effect on basal cell marker Trp63, qPCR of whole lung tissue ([4]; 20 mg/kg i.p. days 1 and 3, FIG. 6e): no effect | ciliated cell marker Foxj1, qPCR of whole lung tissue ([4]; 20 mg/kg i.p. days 1 and 3, FIG. 6d): concomitant increase | Muc5ac expression levels, qPCR of whole lung tissue RNA ([4]; 20 mg/kg i.p. days 1 and 3, confirms reduced goblet cell metaplasia, FIG. 6c): verified this observation | IL-13 driven goblet cell metaplasia (PAS staining of lung sections) ([4]; Balb/c mice, 20 mg/kg antibody i.p. 2 hours before intranasal IL-13, days 1 and 3, FIGS. 6a, 6b): completely blocked
